# Assay results taken from patent publication US20240201203A1, “COMPOSITIONS AND METHODS FOR TREATING INDIVIDUALS WHO HAVE ONCOGENE-NEGATIVE CANCER” (priority 2021, published 2024).
# Columns and labels:
# [1] = tested on: Nf1, Rasa1, and Pten-mutant lung adenocarcinoma cell-lines; assay: Clonogenic growth assay and Loewe synergy, mouse oncogene-negative cell lines; type: cell-based; conditions: three mouse cell lines, various doses, four days, crystal violet
# Description: (§1) Cell lines were generated from tumors initiated in Trp53^flox/flox; TC BL6 mice four months after transduction with Lenti-sgNf1-sgRasa1-sgPten/Cre. After dissociation of tumors (described below), cells were cultured in the regular media.
# For clonogenic assays, cells were seeded in triplicate into 24-well plates (4000 cells per well) and allowed to adhere overnight in regular growth media. Cells were then cultured in the absence or presence of the drug as indicated on each figure panel in complete media for 4 days. Growth media with or without drugs was replaced every 2 days. The remaining cells were stained with 0.5% crystal violet in 20% methanol and photographed using a digital scanner. Relative growth was quantified by densitometry after extracting crystal violet from the stained cells using 100% methanol.
# Drug synergism was analyzed using SynergyFinder (https://synergyfinder.fimm.fi) web application. The degree of combination synergy, or antagonism, is quantified by comparing the observed drug combination response against the expected response, calculated using Loewe's model that assumes no interaction between drugs.
# [2] = tested on: Nf1, Rasa1, and Pten mutant oncogene-negative lung tumors; assay: Drug efficacy study in TC mice with oncogene-negative lung tumors (Tuba-seq, imaging, histology); type: in vivo, mouse; conditions: tumors from sgNf1/sgRasa1/sgPten vectors, capivasertib 100 mg/kg, RMC-4550 30 mg/kg, gavage, two weeks, 3.5 months after tumor initiation, vs vehicle
# Description: For drug efficacy studies, TC mice (8-12 weeks old) were divided into 4 groups randomly. They received the vehicle, capivasertib (100 mg/kg, Med Chem Express), RMC-4550 (30 mg/kg, Med Chem Express), or a combination of both dissolved in 10% DMSO, 40% PEG, 5% Tween 80, and 45% PBS through a gavage needle. Mice were treated daily with drugs for eight days, and the treatment was stopped for two days for recovery, and it continued for two more days before the tissue harvest.
# Tumors were initiated by intratracheal delivery of pooled or individual Lenti-sgRNA/Cre vectors. Barcoded Lenti-sgRNA/Cre vectors within each viral pool are indicated in each figure. […]
# For DNA extraction from single dissected tumors to generate libraries for Tuba-seq, targeted sequencing of selected oncogenes, and whole-exome sequencing, we used Qiagen AllPrep DNA/RNA Micro kit. […] Three cell lines (100,000 to 500,000 cells each) were added to each mouse lung sample before lysis to enable the calculation of the absolute number of neoplastic cells in each tumor from the number of sgID-BC reads. […] The concentration and quality of the purified libraries were determined using the Agilent High Sensitivity DNA kit (Agilent Technologies, 5067-4626) on the Agilent 2100 Bioanalyzer (Agilent Technologies, G2939BA). […]
# The FASTQ files were parsed to identify the sgID and barcode (BC) for each read. […]
# [3] = tested on: RAS and PI3K signaling; assay: Immunoblot of oncogene-negative cell lines treated with drugs; type: cell-based, mouse; conditions: 3 oncogene-negative cell lines, 10 uM, 24 hours
# Description: as §1
# For apoptosis and proliferation assays, 3×10^5 cells were seeded into 6-well plates and allowed to adhere overnight in regular growth media and cultured in the presence or absence 10 uM of Capivasertib, RMC-4550, or a combination of both drugs. After 24 hours, the protein was extracted using RIPA lysis buffer (Thermo Fisher Scientific, 89900) and proteinase/phosphatase inhibitor cocktail (Thermo Fisher Scientific, 78442). Protein concentration was measured using BCA protein assay kit (Thermo Fisher Scientific, 23250). Proteins (30 ug from each sample) were separated by SDS-PAGE and immunoblotted and transferred to polyvinyl difluoride (PVDF) membranes (BioRad, 162-0177) according to standard protocols. Membranes were immunoblotted with antibodies against phosphor-ERK (Cell Signaling Technology, 4370), ERK (Cell Signaling Technology, 9102), phosphor-AKT (Thermo Fisher Scientific, 44-621G), AKT (Cell Signaling Technology, 4691), phospho-S6 (Cell Signaling Technology, 4858), S6 (Cell Signaling Technology, 2217), and HSP90 (BD Bioscience, 610418). […]
Structure (SMILES),overall growth of oncogene-negative cell lines [1],total tumor burden (Tuba-seq analysis) [2],RAS signaling (immunoblot) [3],PI3K signaling (immunoblot) [3]
Cc1nc(N2CCC3(CC2)CO[C@@H](C)[C@H]3N)c(CO)nc1-c1cccc(Cl)c1Cl [RMC-4550],decreased the overall growth of three oncogene-negative RAS/PI3K cell lines in a dose-dependent manner,reduced the total tumor burden significantly,reduced,
NC1(C(=O)N[C@@H](CCO)c2ccc(Cl)cc2)CCN(c2ncnc3[nH]ccc23)CC1 [capivasertib],decreased the overall growth of three oncogene-negative RAS/PI3K cell lines in a dose-dependent manner,ineffective,,reduced
